Reference: US8524705B2, “2-oxo-2-(2-phenyl-5,6,7,8-tetrahydro-indolizin-3-yl)-acetamide derivatives and related compounds as antifungal agents” (F2G Limited British Body Corporate, priority 2007, dated 2013)
Converted amounts (≈) assume the structure as drawn.

Key:
Type in all cases: cell-based
Details in all cases: banded into grades
[1] = tested on: Aspergillus fumigatus AF210; assay: Measurement of Minimum Inhibitory Concentrations (MICs), A. fumigatus 210
Protocol: (§1) Between 1 and 5 mgs of compound were accurately weighed out into a sterile Eppendorf tube. The compound was dissolved in DMSO to give a solution containing 5 mg/mL. Tubes were stored at −20° C. until required. On the day of testing thawed solutions were vortex mixed to ensure homogeneity. 30 μL of solution was removed and added to 570 μL of sterile water in a separate sterile Eppendorf. The thoroughly mixed solution was used to prepare a series of doubling dilutions in water, in a deep well plate. […] replicate plates were prepared using a Minitrak by aspirating […] from each well into eleven clear polystyrene 96 well plates. Spores of Aspergillus spp. (Aspergillus fumigatus [two strains], Aspergillus terreus [two strains], Aspergillus niger and Aspergillus flavus) were harvested from cultures grown on Sabarauds agar for 5 days, and resuspended in PBS/Tween 80 to approx 1×10^7 cfu/mL. Each organism suspension was diluted in YAG medium (1% glucose, 1% ammonium chloride and 0.5% yeast extract) to 0.5-2×10^4 cfu/mL. 80 μL of an organism suspension was added to each well of the plate containing drug dilutions. This produced MIC plates with a drug range 50-0.05 mg/L and organism inocula of 1−2×10^4 cfu/mL for Aspergillus spp. All plates were incubated for 24 hrs at 35° C. Growth was assessed by monitoring the optical density at 485 nm for each well. The MIC of a compound is the lowest drug concentration that inhibits growth of an organism by >70% compared with a drug free control. MICs are recorded as mg/L. In cases where the MIC of an organism is >=0.05 mg/L the MIC is repeated using a concentration range of 0.5-0.0005 mg/L. Other growth media can be used for susceptibility testing, and the activity of the described compounds was also assessed in RPMI medium containing 2% glucose, and 0.135M MOPS buffer. MIC tests in YAG medium have more clear-cut endpoints and have slightly lower MICs than those performed in RPMI medium. The following organisms were tested: Aspergillus flavus, Aspergillus fumigatus AF293 and AF210, Aspergillus niger and Aspergillus terreus AT4 and AT49.

[2] = tested on: Aspergillus terreus AT4; assay: Measurement of Minimum Inhibitory Concentrations (MICs), A. terreus
Protocol: as §1

[3] = tested on: Aspergillus niger; assay: Measurement of Minimum Inhibitory Concentrations (MICs), A. niger
Protocol: as §1

[4] = tested on: Aspergillus flavus; assay: Measurement of Minimum Inhibitory Concentrations (MICs), A. flavus
Protocol: as §1

[5] = tested on: Aspergillus terreus AT49; assay: Measurement of Minimum Inhibitory Concentrations (MICs), A. terreus 49
Protocol: as §1

[6] = tested on: Aspergillus fumigatus AF293; assay: Measurement of Minimum Inhibitory Concentrations (MICs), A. fumigatus
Protocol: as §1

[7] = RPMI medium containing 2% glucose, 0.135M MOPS buffer
[8] = YAG medium, 24 hrs at 35° C., >70% growth inhibition

Row | Structure (SMILES) | MIC [1, 7] [µg/mL] | MIC [1, 8] [µg/mL] | MIC [2, 7] [µg/mL] | MIC [2, 8] [µg/mL] | MIC [3, 7] [µg/mL] | MIC [3, 8] [µg/mL] | MIC [4, 7] [µg/mL] | MIC [4, 8] [µg/mL] | MIC [5, 7] [µg/mL] | MIC [5, 8] [µg/mL] | MIC [6, 7] [µg/mL] | MIC [6, 8] [µg/mL]
1 | Cc1cc(C)nc(N2CCN(c3ccc(NC(=O)C(=O)c4c(-c5ccccc5)cc5n4CCCC5)cc3O)CC2)c1 [Example 31, N-{4-[4-(4,6-Dimethyl-pyridin-2-yl)-piperazin-1-yl]-3-hydroxy-phenyl}-2-oxo-2-(2-phenyl-5,6,7,8-tetrahydro-indolizin-3-yl)-acetamide] | < 1 | < 1 | < 1 | < 1 | < 1 | < 1 | < 1 | < 1 | < 1 | < 1 | < 1 | < 1
2 | Cc1cc(C)nc(OCCOc2ccc(NC(=O)C(=O)c3c(-c4ccccc4)cc4n3CCCC4)cc2)c1 [Example 9, N-{4-[2-(4,6-Dimethyl-pyridin-2-yloxy)-ethoxy]-phenyl}-2-oxo-2-(2-phenyl-5,6,7,8-tetrahydro-indolizin-3-yl)-acetamide] | < 1 | < 1 | < 1 | < 1 | < 1 | < 1 | < 1 | < 1 | < 1 | < 1 | < 1 | < 1
3 | CCc1cccc(N2CCN(c3ccc(NC(=O)C(=O)c4c(-c5ccccc5)cc5n4CCCC5)cc3)CC2)n1 [Example 15, N-{4-[4-(6-Ethyl-pyridin-2-yl)-piperazin-1-yl]-phenyl}-2-oxo-2-(2-phenyl-5,6,7,8-tetrahydro-indolizin-3-yl)-acetamide] | < 1 | < 1 | < 1 | < 1 | < 1 | < 1 | < 1 | < 1 | < 1 | < 1 | < 1 | < 1
4 | Cc1cc(C)nc(N2CCC(O)(c3ccc(NC(=O)C(=O)c4c(-c5ccccc5)cc5n4CCCC5)cc3)CC2)c1 [Example 21, N-[4-(4-Hydroxy-4′,6′-dimethyl-3,4,5,6-tetrahydro-2H-[1,2′]bipyridinyl-4-yl)-phenyl]-2-oxo-2-(2-phenyl-5,6,7,8-tetrahydro-indolizin-3-yl)-acetamide] | < 1 | < 1 | < 1 | < 1 | < 1 | < 1 | < 1 | < 1 | < 1 | < 1 | < 1 | < 1
5 | O=C(Nc1ccc2c(c1)OCC2)C(=O)c1c(-c2ccccc2)cc2n1CCCC2 [Example 32, N-(2,3-Dihydro-benzofuran-6-yl)-2-oxo-2-(2-phenyl-5,6,7,8-tetrahydro-indolizin-3-yl)-acetamide] | 1 to 10 (≈ 2.59 to 25.9 µM) | < 1 | < 1 | < 1 | < 1 | < 1 | 1 to 10 (≈ 2.59 to 25.9 µM) | < 1 | < 1 | < 1 | 1 to 10 (≈ 2.59 to 25.9 µM) | < 1
6 | Cc1cc(C)nc(N2CCCN(c3ccc(NC(=O)C(=O)c4c(-c5ccccc5)cc5n4CCCC5)cc3)CC2)c1 [Example 5, N-{4-[4-(4,6-dimethyl-pyridin-2-yl)-[1,4]diazepan-1-yl]-phenyl}-2-oxo-2-(2-phenyl-5,6,7,8-tetrahydro-indolizin-3-yl)-acetamide] | < 1 | < 1 | < 1 | < 1 | < 1 | < 1 | < 1 | < 1 | < 1 | < 1 | < 1 | < 1
7 | Cc1cc(C)nc(N2CCN(c3ccc(NC(=O)C(=O)c4c(-c5ccccc5)cc5n4CCCC5)cc3COCCCN3CCOCC3)CC2)c1 [Example 26, N-[4-[4-(4,6-Dimethyl-pyridin-2-yl)-piperazin-1-yl]-3-(3-morpholin-4-yl-propoxymethyl)-phenyl]-2-oxo-2-(2-phenyl-5,6,7,8-tetrahydro-indolizin-3-yl)-acetamide] | > 10 | > 10 | > 10 | > 10 | > 10 | > 10 | > 10 | 1 to 10 (≈ 1.45 to 14.5 µM) | > 10 | > 10 | > 10 | > 10
8 | C=C(C)CN1CCN(c2ccc(NC(=O)C(=O)c3c(-c4ccccc4)cc4n3CCCC4)cc2)CC1 [Example 1, N-{4-[4(2-methyl-allyl)-piperazin-1-yl]-phenyl}-2-oxo-2-(2-phenyl-5,6,7,8-tetrahydro-indolizin-3-yl)-acetamide] | < 1 | < 1 | < 1 | < 1 | < 1 | < 1 | < 1 | < 1 | < 1 | < 1 | < 1 | < 1

More lines, now with the values ahead:

Row | MIC [1, 7] [µg/mL] | MIC [1, 8] [µg/mL] | MIC [2, 7] [µg/mL] | MIC [2, 8] [µg/mL] | MIC [3, 7] [µg/mL] | MIC [3, 8] [µg/mL] | MIC [4, 7] [µg/mL] | MIC [4, 8] [µg/mL] | MIC [5, 7] [µg/mL] | MIC [5, 8] [µg/mL] | MIC [6, 7] [µg/mL] | MIC [6, 8] [µg/mL] | Structure (SMILES)
9 | < 1 | < 1 | < 1 | < 1 | < 1 | < 1 | < 1 | < 1 | < 1 | < 1 | < 1 | < 1 | CC(C)(C)CN1CCN(c2ccc(NC(=O)C(=O)c3c(-c4ccccc4)cc4n3CCCC4)cc2)CC1 [Example 2, N-{4-[4-(2,2-dimethyl-propyl)-piperazin-1-yl]-phenyl}-2-oxo-2-(2-phenyl-5,6,7,8-tetrahydro-indolizin-3-yl)-acetamide]
10 | < 1 | < 1 | < 1 | < 1 | < 1 | < 1 | < 1 | < 1 | < 1 | < 1 | < 1 | < 1 | COc1cc(C)cc(N2CCN(c3ccc(NC(=O)C(=O)c4c(-c5ccccc5)cc5n4CCCC5)cc3)CC2)n1 [Example 13, N-{4-[4-(6-Methoxy-4-methyl-pyridin-2-yl)-piperazin-1-yl]-phenyl}-2-oxo-2-(2-phenyl-5,6,7,8-tetrahydro-indolizin-3-yl)-acetamide]
11 | < 1 | < 1 | < 1 | < 1 | < 1 | < 1 | < 1 | < 1 | < 1 | < 1 | < 1 | < 1 | Cc1cc(C)nc(N2CCN(c3ccc(NC(=O)C(=O)c4c(-c5ccccc5)cc5n4CCCC5)cc3Cl)CC2)c1 [Example 27, N-{3-Chloro-4-[4-(4,6-dimethyl-pyridin-2-yl)-piperazin-1-yl]-phenyl}-2-oxo-2-(2-phenyl-5,6,7,8-tetrahydro-indolizin-3-yl)-acetamide]
12 | < 1 | < 1 | < 1 | < 1 | < 1 | < 1 | < 1 | < 1 | < 1 | < 1 | < 1 | < 1 | COCc1cc(NC(=O)C(=O)c2c(-c3ccccc3)cc3n2CCCC3)ccc1N1CCN(c2cc(C)cc(C)n2)CC1 [Example 23, N-{4-[4-(4,6-Dimethyl-pyridin-2-yl)-piperazin-1-yl]-3-methoxymethyl-phenyl}-2-oxo-2-(2-phenyl-5,6,7,8-tetrahydro-indolizin-3-yl)-acetamide]
13 | > 10 | < 1 | < 1 | < 1 | < 1 | < 1 | < 1 | < 1 | < 1 | < 1 | > 10 | < 1 | O=C(Nc1cccc2ccccc12)C(=O)c1c(-c2ccccc2)cc2n1CCCC2 [Example 28, N-Naphthalen-1-yl-2-oxo-2-(2-phenyl-5,6,7,8-tetrahydro-indolizin-3-yl)-acetamide]
14 | < 1 | < 1 | < 1 | < 1 | < 1 | < 1 | < 1 | < 1 | < 1 | < 1 | < 1 | < 1 | Cc1cc(C)nc(N(C)CCCN(C)c2ccc(NC(=O)C(=O)c3c(-c4ccccc4)cc4n3CCCC4)cc2)c1 [Example 19, N-[4-({3-[(4,6-Dimethyl-pyridin-2-yl)-methyl-amino]-propyl}-methyl-amino)-phenyl]-2-oxo-2-(2-phenyl-5,6,7,8-tetrahydro-indolizin-3-yl)-acetamide]
